The text below walks through data of patent publication EP4653007A1, “NOVEL MIXTURE OF ACTIVE INGREDIENTS, COMPOSITIONS CONTAINING THEM, AND THEIR USE AGAINST ALLERGY AND/OR INFLAMMATION” (Global Pharmacies Partner S.R.L. in Forma Abbreviata G.P.P. …, priority 2024, dated 2025).

One assay concerns RBL-2H3 cells. As to the kind of experiment: evaluation of degranulation (β-hexosaminidase release) in sensitized/stimulated RBL-2H3 cells. It is filed as cell-based, rat. The conditions noted are these: positive control 20 µM. As to the method: To evaluate the efficacy of a mixture M according to the invention, the following in vitro study was conducted. The antiallergic activity of the tested sample of mixture M was evaluated by measuring its ability to prevent degranulation processes in a rat leukemia cell line (RBL-2H3), widely used as a model simulating mast cells in immunological and allergological studies.
(§1) The RBL-2H3 cells were first sensitized and then stimulated to induce degranulation.
The test was conducted on RBL-2H3 cells grown in DMEM (Dulbecco's modified Eagle medium) containing 10% fetal bovine serum (FBS) and 1% antibiotics (penicillin and streptomycin) and incubated in standard culture conditions (37°C, 5% CO2). RBL-2H3 cells are widely used in allergy and immunology research, as, like mast cells, they express FCεRI and, following cross-linking between IgE bound to FCεRI and allergens, they undergo degranulation. […]
The medium was then recovered and separated from the cells and incubated with 4-nitrophenyl-N-acetyl-β-D-glucosamide. The reaction was stopped with carbonate buffer and the absorbance was measured by spectrophotometric reading at 405 nm. Degranulation was calculated as the percentage of β-hexosaminidase relative to non-sensitized (NS) cells as follows: Degranulation (%) = (ODX)/(ODNS)⋅100 [formula] […]

The subject of the next assay is TNFα. Briefly: TNFα dosage by ELISA in supernatant of sensitized/stimulated RBL-2H3 cells. The assay is classed as cell-based, rat. The conditions noted are these: positive control 20 µM. As to the method:
The anti-inflammatory action was instead evaluated, always in the same cell line, by measuring the ability of the sample to inhibit the release of tumor necrosis factor alpha (TNFα).
as §1
The test was conducted on RBL-2H3 cells grown in DMEM (Dulbecco's modified Eagle medium) containing 10% fetal bovine serum (FBS) and 1% antibiotics (penicillin and streptomycin) and incubated in standard culture conditions (37°C, 5% CO2). RBL-2H3 cells are widely used in allergy and immunology research, as, like mast cells, they express FCεRI and, following cross-linking between IgE bound to FCεRI and allergens, they undergo degranulation. In this way, therefore, they simulate the behavior of mast cells and basophils in their response to an immunological stimulus.
The supernatant recovered from the cells was also used for the dosage of TNFα performed by ELISA (Enzyme-Linked Immunosorbent Assay), a very widespread biochemical technique used for the quantification of proteins and peptides. In an ELISA assay, a specific […] for TNFα is immobilized on a solid surface (the bottom of a well) to which the assay medium is added. Detection is done by means of a biotinylated secondary antibody and then reacted with streptavidin-HRP. The colorimetric reaction is proportional to the amount of TNFα present. The results are read by spectrophotometer at 450 nm. The values obtained were then interpolated into a standard curve of TNFα.
The absorbance (optical density, OD) measured at 450 nm is directly proportional to the amount of TNFα produced by the tissues. To calculate the concentrations of TNFα, the OD values obtained were interpolated into a standard curve of TNFα. The percentages were calculated with respect to the non-sensitized and non-stimulated cells (NS). The values are expressed as means ± standard deviation. Statistical processing of the data was performed by Student's t-test. Values of p<0.05 are considered significant. […]

As to `C=C1CC[C@H]2C(=C)CC[C@H]3C(=C)C(=O)O[C@@H]3[C@@H]12` [PC, Dehydrocostolactone], the “β-hexosaminidase (% vs NS)” value in the assay with RBL-2H3 cells (RBL-2H3, anti-DNP IgE / DNP-HSA) came to 244.8%. For the same compound, the “protection (% vs NC)” value in the assay on RBL-2H3 cells (reduction in degranulation) came out at 80.8%. Further, the “TNFα (% vs NS)” value with TNFα is 183.4%. Besides, in the assay with TNFα (RBL-2H3 supernatant), the “TNFα” value is 200.3 pg/mL. Further, the “protezione (% vs NC)” value with TNFα (reduction in TNFα release) came to 19.5%.
